Results from patent US7642283B2, “Mitochrondrial permeability transition pore affinity labels and modulators” (Hoffmann-La Roche Inc., priority 2003, dated 2010).

Legend:
YVDAC1 = target: T1, YVDAC1 (Saccharomyces cerevisiae, UniProt P04840); assay: Affinity labeling of yeast mitochondria (Δpor1 and Δpor1 expressing YVDAC1); format: binding; conditions: Δpor1 yeast mitochondria expressing YVDAC1; increasing concentration
T1 construct: expressed in transfected cells; host or cells: Δpor1 yeast strain carrying a YVDAC1 plasmid; isolated mitochondria
T1 sequence (P04840 2-283): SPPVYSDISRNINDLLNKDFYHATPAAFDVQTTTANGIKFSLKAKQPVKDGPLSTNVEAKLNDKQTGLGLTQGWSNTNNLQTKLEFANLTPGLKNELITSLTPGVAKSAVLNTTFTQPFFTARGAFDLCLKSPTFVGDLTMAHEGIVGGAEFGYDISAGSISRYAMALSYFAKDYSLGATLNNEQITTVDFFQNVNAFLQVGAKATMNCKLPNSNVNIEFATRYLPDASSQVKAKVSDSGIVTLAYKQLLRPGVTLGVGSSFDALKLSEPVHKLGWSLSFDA
Description: FIG. 9: Spiro[cyclopentane-1,5′-[5H]dibenzo[a,d]cyclohepten]-2-one,10′,11′-t2-10′,11′-dihydro-3-methylene affinity labeling of yeast mitochondria lacking the por1 gene for YVDAC1 (Δpor1) and into Δpor1 yeast mitochondria transfected with YVDAC1 in presence or absence of different concentrations of Spiro[cyclopentane-1,5′-[5H]dibenzo[a,d]cyclohepten]-2-one,10′,11′-dihydro-3-methylene (unlabeled). The fluorograms of gels after SDS-PAGE are shown. Mitochondria isolated from yeast strains were incubated in the presence of 10 nM Spiro[cyclopentane-1,5′-[5H]dibenzo[a,d]cyclohepten]-2-one,10′,11′-t2-10′,11′-dihydro-3-methylene for 15 min at 25° C. Numbers indicate the concentrations (μM) of the various compounds added.
To further confirm VDAC1 as the protein target of Spiro[cyclopentane-1,5′-[5H]dibenzo[a,d]cyclohepten]-2-one,10′,11′-dihydro-3-methylene-, the labeling of proteins in mitochondria prepared from yeasts by Spiro[cyclopentane-1,5′-[5H]dibenzo[a,d]cyclohepten]-2-one,10′,11′-t2-10′,11′-dihydro-3-methylene- was investigated. […] Increasing concentration of unlabelled Spiro[cyclopentane-1,5′-[5H]dibenzo[a,d]cyclohepten]-2-one,10′,11′-dihydro-3-methylene-inhibited incorporation of the radioactivity (FIG. 9).

MPTP [1] = target: T2, MPTP (Rattus norvegicus, UniProt Q9Z2L0); assay: Ca2+-induced swelling in rat brain mitochondria; format: biochemical; conditions: 80 μM CaCl2; potency in the range of liver mitochondria
T2 construct: other: n=2; glutamate/malate; other: glutamate/malate; 20 min; mean±SEM; unit not given; other: 300 nM; relieved by 50 μM Ub5
Description: The effect of Spiro[cyclopentane-1,5′-[5H]dibenzo[a,d]cyclohepten]-2-one,10′,11′-dihydro-3-methylene- at inhibiting MPTP was also investigated in mitochondria isolated from rat forebrain. […] Due to the difficulties mentioned above, the effect of Spiro[cyclopentane-1,5′-[5H]dibenzo[a,d]cyclohepten]-2-one,10′,11′-dihydro-3-methylene- on MPTP in brain mitochondria was more accurately investigated by subjecting mitochondria isolated from rat forebrain to a series of Ca^2+ pulses (5 μM, ˜150 nmol mg protein^−1) and by monitoring extramitochondrial Ca^2+ or using fluororescent probes.

MPTP [2] = assay: MPTP induced by phenylarsineoxide or ATR; format: biochemical
[3] = test system: mitochondrial respiration; assay: Mitochondrial respiration (oxygen consumption); format: biochemical; conditions: at concentrations completely blocking MPTP
Description: Isolated liver mitochondria (˜0.5 mg protein ml^−1) were incubated in a batch mode in the presence of 20 nM [^3H]TPP ([^3H]Tetraphenylphosphonium ([^3H]TPP, 24-29 Ci/mmol) from Amersham Biosciences, Switzerland) for 15 min at 25° C. Aliquots (100 μl) of the mixture were then distributed into 96-well plates containing 100 μl of the test compound and the incubation prolonged for 15 min at 25° C. Samples were then filtered through 0.3% (v/v) polyethyleneimmine-treated GF/B glass fiber filters using a 96-channel cell harvester and the filters washed twice with 1 ml of buffer. Fifty μl of MICROSCINT 40 (Packard) were then added to each well, before counting for radioactivity in a TopCount scintillation counter (Packard). Non-specific uptake was determined in the presence of 1 mM unlabeled TPP or 1 μM carbonylcianide-p-trifluoromethoxyphenyl hydrazone (FCCP). Mitochondrial oxygen consumption was measured polarographically at 25° C. using a Clark-type electrode.
Compounds found to inhibit MPTP where then counter-screened using uptake of the potentiometric probe [^3H]-TPP (Hoek, J. B., Nicholls, D. G. & Williamson, J. R. (1980) J. Biol. Chem. 255, 1458-1564) for determining in a semi-quantitative, but rapid way whether they interfered with mitochondrial respiration (e.g. protonophores). […]

T2 sequence (Q9Z2L0 2-283): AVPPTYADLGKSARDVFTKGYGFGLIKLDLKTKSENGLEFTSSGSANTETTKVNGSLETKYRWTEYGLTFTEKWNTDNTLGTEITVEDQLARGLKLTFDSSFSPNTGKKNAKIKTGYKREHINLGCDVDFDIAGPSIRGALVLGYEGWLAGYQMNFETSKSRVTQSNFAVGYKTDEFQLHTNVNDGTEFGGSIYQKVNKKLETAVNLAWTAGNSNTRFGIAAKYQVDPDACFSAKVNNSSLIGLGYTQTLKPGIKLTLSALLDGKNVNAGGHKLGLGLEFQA

Effect of unlabelled compound on incorporation of radioactivity (YVDAC1): inhibited
Inhibition of swelling in brain mitochondria (MPTP [1]): inhibited
SMILES: C=C1CCC2(C1=O)c1ccccc1CCc1ccccc12 [Spiro[cyclopentane-1,5′-[5H]dibenzo[a,d]cyclohepten]-2-one,10′,11′-dihydro-3-methylene-]
Inhibition of MPTP induced by ATR (MPTP [2]; ATR 50 μM): inhibited
Inhibition of MPTP induced by phenylarsineoxide (MPTP [2]; phenylarsineoxide 25 μM): inhibited
Inhibition of mitochondrial respiration (basal, ADP-induced and uncoupled) [3]: did not inhibit
